Assay results published in ChEMBL document CHEMBL1131989 (Bioorg Med Chem Lett, 1999).

Assays:
[1] = biological target: Delta-type opioid receptor (Homo sapiens, UniProt P41143); test: In vitro binding affinity towards Opioid receptor delta 1 was determined using […]
Mu-type opioid receptor = Mu-type opioid receptor (Homo sapiens, UniProt P35372); test: In vitro binding affinity towards mu opioid receptors was determined using [3H][p-Cl-Phe]- 4] DPDPE or [3H]deltorphin II
Cavia porcellus = species on record: Cavia porcellus; test: Concentration of compound required for evaluating efficacy in guinea pig ileum (GPI); type: functional, organism-based
Mus musculus = species on record: Mus musculus; test: Concentration of compound required for evaluating efficacy in mouse vas deferens (MVD); type: functional, organism-based

Sequence of Delta-type opioid receptor (P41143 whole entry): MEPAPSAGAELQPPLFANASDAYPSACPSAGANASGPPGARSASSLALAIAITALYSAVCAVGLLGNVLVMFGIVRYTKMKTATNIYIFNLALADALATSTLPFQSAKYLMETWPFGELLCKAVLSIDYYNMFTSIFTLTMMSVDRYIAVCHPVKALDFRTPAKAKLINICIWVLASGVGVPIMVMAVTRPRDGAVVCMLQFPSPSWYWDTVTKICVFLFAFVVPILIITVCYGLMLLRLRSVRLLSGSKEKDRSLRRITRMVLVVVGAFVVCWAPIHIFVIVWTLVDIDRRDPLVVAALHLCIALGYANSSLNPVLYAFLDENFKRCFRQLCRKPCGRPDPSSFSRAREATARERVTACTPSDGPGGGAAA
Sequence of Mu-type opioid receptor (P35372 whole entry): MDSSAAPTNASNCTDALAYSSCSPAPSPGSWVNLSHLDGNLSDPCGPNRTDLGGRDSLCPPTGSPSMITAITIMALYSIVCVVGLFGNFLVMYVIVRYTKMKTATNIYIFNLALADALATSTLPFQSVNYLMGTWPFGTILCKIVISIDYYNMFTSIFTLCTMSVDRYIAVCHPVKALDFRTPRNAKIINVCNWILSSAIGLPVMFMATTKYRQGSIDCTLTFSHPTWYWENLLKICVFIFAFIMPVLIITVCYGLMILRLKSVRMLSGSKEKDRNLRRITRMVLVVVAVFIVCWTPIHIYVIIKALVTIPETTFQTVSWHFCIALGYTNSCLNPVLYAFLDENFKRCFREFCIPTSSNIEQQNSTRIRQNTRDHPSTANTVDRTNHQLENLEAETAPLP

Row | Structure (SMILES) | IC50 [1] [nM] | IC50 (Mu-type opioid receptor) [nM] | EC50 (Cavia porcellus) [nM] | EC50 (Mus musculus) [nM]
1 | CCCC[C@@H](N)C(=O)NNC(=O)[C@H](Cc1ccccc1)NC(=O)CNC(=O)[C@@H](C)NC(=O)[C@@H](N)Cc1ccc(O)cc1 | 71 | 5.9 | 5.2 | 95
2 | C[C@@H](NC(=O)[C@@H](N)Cc1ccc(O)cc1)C(=O)NCC(=O)N[C@@H](Cc1c[nH]c2ccccc12)C(=O)NNC(=O)[C@H](N)Cc1ccccc1 | 46 | 8.3 | 26 | 130
3 | CCCC[C@H](N)C(=O)NNC(=O)[C@H](Cc1ccccc1)NC(=O)CNC(=O)[C@@H](C)NC(=O)[C@@H](N)Cc1ccc(O)cc1 | 21 | 1.3 | 24 | 20
4 | C[C@@H](NC(=O)[C@@H](N)Cc1ccc(O)cc1)C(=O)NCC(=O)N[C@@H](Cc1ccccc1)C(=O)NNC(=O)[C@H](N)Cc1ccccc1 | 15 | 0.74 | 2.4 | 27
5 | C[C@@H](NC(=O)[C@@H](N)Cc1ccc(O)cc1)C(=O)NCC(=O)N[C@@H](Cc1ccccc1)C(=O)NNC(=O)[C@H](N)Cc1ccc(O)cc1 | 16 | 1.6 | 15 | 45
6 | C[C@@H](NC(=O)[C@@H](N)Cc1ccc(O)cc1)C(=O)NCC(=O)N[C@@H](Cc1ccccc1)C(=O)NN | 230 | 4.7 | 90 | 290
7 | C[C@@H](NC(=O)[C@@H](N)Cc1ccc(O)cc1)C(=O)NCC(=O)N[C@@H](Cc1ccccc1)C(=O)NNC(=O)[C@H](N)Cc1c[nH]c2ccccc12 | 29 | 2 | 7.1 | 15
8 | C[C@@H](NC(=O)[C@@H](N)Cc1ccc(O)cc1)C(=O)NCC(=O)N[C@@H](Cc1ccccc1)C(=O)NNC(=O)[C@@H](N)Cc1ccccc1 | 30 | 0.88 | 9.8 | 32
9 | C[C@@H](NC(=O)[C@@H](N)Cc1ccc(O)cc1)C(=O)NCC(=O)N[C@@H](Cc1ccccc1)C(=O)NNC(=O)[C@H](Cc1ccccc1)NC(=O)CNC(=O)[C@@H](C)NC(=O)[C@@H](N)Cc1ccc(O)cc1 [BIPHALIN] | – | 1.4 | 8.8 | 27
